Blank lines part the entries; values can stand above or below the compound they belong to.
Conditions: for Stable dissolution in resolvents of the invention: in 2-octyl-1-dodecanol, 2-hexyl-1-decanol, isostearyl alcohol or oleyl alcohol, temperature range of 4 to 50° C.
Experimental: 50 or 150 parts by weight of tulobuterol was added to each of the following resolvents in such a manner that the total amount of an obtained tulobuterol solution became 1000 parts by weight: 2-octyl-1-dodecanol (manufactured by Cognis Japan Ltd., under the trade name of “EUTANOL G”), 2-hexyl-1-decanol (manufactured by Cognis Japan Ltd., under the trade name of “EUTANOL G16N”), isostearyl alcohol (manufactured by Kokyu Alcohol Kogyo Co., Ltd., under the trade name of “Isostearyl Alcohol EX”), oleyl alcohol (manufactured by Kokyu Alcohol Kogyo Co., Ltd., under the trade name of “Oleyl Alcohol VP”), cetanol (hexadecyl alcohol) (manufactured by NOF Corporation, under the trade name of “NAA-44”), isopropyl myristate (manufactured by Nikko Chemicals Co., Ltd., under the trade name of “IPM-100”), decyl oleate (manufactured by Cognis Japan Ltd., under the trade name of “CETIOL V”), medium chain triglyceride (manufactured by NOF Corporation, under the trade name of “PANACET 800”), polyethylene glycol (manufactured by Maruishi Pharmaceutical Co., Ltd., under the trade name of “MACROGOL 400 (Japanese Pharmacopoeia)”), propylene glycol (manufactured by Maruishi Pharmaceutical Co., Ltd., under the trade name of “Propylene Glycol (Japanese Pharmacopoeia)”), and liquid paraffin (manufactured by Sankei Sangyo K.K., under the trade name of “Liquid Paraffin No. 350”). Each of the thus obtained tulobuterol solutions was kept at 50° C. for 120 minutes, and was then kept at 20° C. for 24 hours, and was further kept at 4° C. for 24 hours.
At this time, the tulobuterol solution was visually observed to see whether crystalline tulobuterol was deposited or not after the completion of each warming of the tulobuterol solution at 50, 20 or 4° C. The results are shown in Table 1 wherein the mark “◯” represents a case where crystalline tulobuterol was not observed, and the mark “X” represents a case where crystalline tulobuterol was observed.
The solubility of each of these drugs in these resolvents was determined in the same manner as in a case where the solubility of tulobuterol in these resolvents was determined.
50 or 150 parts by weight of tyramine (manufactured by Tokyo Chemical Industries Co., Ltd.) was added to each of the above-mentioned resolvents (i.e., 2-octyl-1-dodecanol, isopropyl myristate, polyethylene glycol, and propylene glycol) in such a manner that the total amount of an obtained tyramine solution became 1000 parts by weight. The solubility of tyramine in these resolvents was determined in the same manner as in a case where the solubility of tulobuterol in these resolvents was determined.

Stable dissolution in resolvents of the invention: stably dissolved
Dissolution in cetanol (resolvent cetanol, solution kept at 50° C.): completely dissolved
SMILES: CC(C)(C)NCC(O)c1ccccc1Cl (stereo not shown) [tulobuterol]

Stable dissolution in resolvents of the invention: not stably dissolved
SMILES: N[C@@H](Cc1ccccc1)C(=O)O [phenylalanine]

Stable dissolution in resolvents of the invention: not stably dissolved
SMILES: CCOc1ccc(NC(C)=O)cc1 [phenacetin]

Second part, the compound before the results:

SMILES: CCCCOC(=O)[C@@H](N)Cc1ccc(O)c(O)c1 [levodopa butyl ester]
Stable dissolution in resolvents of the invention: not stably dissolved

SMILES: CNC[C@H](O)c1ccc(O)c(O)c1 [epinephrine]
Stable dissolution in resolvents of the invention: not stably dissolved

SMILES: NCCc1ccc(O)cc1 [tyramine]
Stable dissolution in resolvents of the invention: not stably dissolved

From patent US20140242151A1, “ADHESIVE SKIN PATCH” (Sekisui Chemical Co., Ltd., priority 2003, published 2014)
